A short description of data set [1]: Anti-Catapresan test (anti-catapresan induced fighting test). It counts as in vivo. The conditions noted are these: po; mouse. Here is the method: (§1) 1-(3,4,5-Trichlorophenyl)piperazine hydrochloride [compound A] was tested in various conventional screens used for determining the effect of major tranquillizors. In these tests chlopromazine was used as a positive control. The results obtained were as follows:
(§2) The activity of Compound A in the anti-catapresan induced fighting test and the inhibition of conditioned avoidance responses in the shuttlebox tests indicate that Compound A has potential neuroleptic/anxiolytic activity in man.

The nature of data set [2]: Induction of catalepsy in the rat. It is filed as in vivo. How it is done:
as §1
catalepsy in 0% at 54% at
the rat. 40 mg/kg s.c. 10 mg/kg i.p.
as §2

Data set [3] can be described thus: Shuttlebox (conditioned avoidance behaviour in the rat), % inhibition of crossing rate. It counts as in vivo. How it is done: as §1, §2
Data set [4] is described as follows: Activity in man extrapolated from potency relative to chlorpromazine in animal tests. The conditions noted are these: orally, inferred from potency relative to chlorpromazine in animal tests.
Source text: as §2

On to `CN(C)CCCN1c2ccccc2Sc2ccc(Cl)cc21` [Chlorpromazine, chlorpromazine, reference compound], for which, in data set [1], it took a dose of 2.8 mg/kg to reach the 50% effect level (ED50). The Induction of catalepsy in data set [2] (10 mg/kg i.p.) was found to be 54%. Moreover, the “% inhibition of crossing rate, Shuttlebox” value in data set [3] (10 mg/kg p.o.) is on record as -67%.
The compound `Cl.Clc1cc(N2CCNCC2)cc(Cl)c1Cl` [Compound A, 1-(3,4,5-Trichlorophenyl)piperazine hydrochloride] yielded an ED50 in data set [1] of 6 mg/kg. Moreover, in data set [2], the cataleptic activity entry was “lack of cataleptic activity”. The same compound showed an Induction of catalepsy in data set [2] (40 mg/kg s.c.) of 0%. Besides, in data set [3] (5 mg/kg p.o.), the “% inhibition of crossing rate, Shuttlebox” value is recorded as -73%. The “daily doses at which active in man” value in data set [4] is 0.2 to 10 mg/kg.

The values above are taken from patent US4139621A, “N-(4-substituted-3,5-dichloro-phenyl)-piperazines” (Beecham Group Limited, priority 1976, dated 1979).
